In patent publication US20230054379A1, “COMPOSITION AND METHOD OF TREATMENT TO SIMU[…] THE […] EFFICACY OF OPIOIDS AND REDUCE THEIR ADDICTIVE POWER” (Centro de Investigacion Y Desarrollo de Medicamentos (CIDEM), priority 2020, published 2023):
“And” between values parts separate entries of the source, which are not always exact repeats. Identical values can stand only once. Like-named read-outs stand apart in the source and are kept apart here. Marks after values point to notes of the source that are not given here.

Key:
[1] = Spontaneous withdrawal symptoms to morphine; type: in vivo, rat; details: JM-20 co-treatment; day 1 of withdrawal after chronic morphine
Description: In this experiment we studied some somatic behaviors and symptoms in the rat associated with spontaneous withdrawal to morphine (jumping or escape attempts, tremors, mastication, piloerection, head shaking).

[2] = General behavioral evaluation of the nervous system (placing/stepping, righting, pinna, corneal reflexes; signs of CNS depression)
[3] = Histopathological study of sciatic nerve (Wallerian degeneration); details: CCI or sham rats; hematoxylin and eosin, light microscopy
[4] = Intensity of mechanical hypernociception (electronic von Frey) in CCI or sham rats after chronic morphine or saline
[5] = 22 rpm, mean ± SEM, n = 6
Description: Young rats (8-10 weeks) Sprague Dawley (SD) (males, 168-240 g) from the National Center for the Production of Laboratory Animals (CENPALAB, Havana, Cuba) were used, adapted for seven days to the conditions of the laboratory. The animals were kept under an alternating cycle of light and dark every 12 h, the temperature was controlled between 25-27° C. and an EMO 1001 diet established for the laboratory animals. After the adaptation period, the animals were distributed in the different groups according to their body weights. Water and food were kept available ad libitum. […] To induce tolerance/hyperalgesia to morphine, it was administered to the animals subcutaneously (10 mg/kg, 1 mUkg, s.c.) twice a day every 12 h for 10 days or saline solution (Cao, J L et al. 2005 Pharmacol Biochem and Behay. 80: 493-503), after oral administration of JM-20 or its vehicle, carboxymethylcellulose (0.5% CMC in distilled water, 10mUkg, p.o.) 1h before. Correspondingly, the following groups were constituted: CMC-SS (n=6), CMC-MOR (n=6), JM-20-SS (n=6), JM-20 (5mg/kg)-MOR (n=6) and JM-20 (20mg/kg)-MOR (n=6).

[6] = Mechanical allodynia dose-response in CCI rats (von Frey filaments, % MPE); type: in vivo, rat; details: 7 days post-CCI
[7] = Mechanical hypernociception dose-response in CCI rats (electronic von Frey, % MPE); type: in vivo, rat; details: for ED50: Rattus norvegicus, 168 h, single dose, doses given in mg/kg
[8] = Morphine-induced tolerance/hyperalgesia in healthy rats (von Frey filaments, electronic von Frey, hot plate, formalin test); type: in vivo, rat
Description: (NIH Publication No. 85-23, revised 1996).

[9] = Thermal hypernociception in CCI rats (Hargreaves test, % MPE); type: in vivo, rat; details: for % MPE, thermal hypernociception: first administration
[10] = day 1, 45 min after first morphine or saline dose, 105 min after JM-20 (20 mg/kg, p.o.) or CMC
[11] = day 5, 45 min after morphine or saline, 105 min after JM-20 (20 mg/kg, p.o.) or CMC
[12] = day 1, 45 min after first dose of morphine or saline, 105 min after JM-20 (20 mg/kg, p.o.) or CMC
[13] = day 5, 45 min after morphine or saline dose, 105 min after JM-20 (20 mg/kg, p.o.) or CMC

## CCOC(=O)C1=C(C)NC2=C(C=Nc3ccccc3N2)C1c1ccccc1[N+](=O)[O-] (centres unmarked) [JM-20, 3-ethoxycarbonyl-2-methyl-4-(2-nitrophenyl)-4,11-dihydro-1H-pyrido [2,3-b] [1,5] benzodiazepine]
[1]
  Spontaneous somatic withdrawal symptoms after withdrawal of morphine: significantly reduced
[2]; [10]
  Corneal reflex, % of animals showing the reflex: 100%
  Pinna reflex, % of animals showing the reflex: 100%
  Placing/stepping reflex, % of animals showing the reflex: 100%
  Righting reflex, % of animals showing the reflex: 100%
[2]; [11]
  Corneal reflex, % of animals showing the reflex: 100%
  Pinna reflex, % of animals showing the reflex: 100%
  Placing/stepping reflex, % of animals showing the reflex: 100%
  Righting reflex, % of animals showing the reflex: 100%
[2]; day 11, without medications
  Corneal reflex, % of animals showing the reflex: 100%
  Pinna reflex, % of animals showing the reflex: 100%
  Placing/stepping reflex, % of animals showing the reflex: 100%
  Righting reflex, % of animals showing the reflex: 100%
[3]
  Qualitative histopathological changes of the sciatic nerve (Wallerian degeneration, cellularity): still exerts its neuroprotective effect
[4]; CCI rats, SS s/c + JM-20 10 mg/kg p.o. for 5 days, day 11 post-surgery, 6 hours after last JM-20, 10 mg/kg
  Intensity of mechanical hypernociception, difference (Δ) of the withdrawal threshold: 10.68±5.89 grams and 10.68 ± 5.89*≠ grams
[4]; CCI rats, SS s/c + JM-20 10 mg/kg p.o. for 5 days, day 23 post-surgery, 12 days after discontinuation of JM-20, 10 mg/kg
  Intensity of mechanical hypernociception, difference (Δ) of the withdrawal threshold: 5.93±2.65 grams and 5.93 ± 2.65*≠ grams
[4]; CCI rats, saline (SS) s/c + JM-20 10 mg/kg p.o. group, day 7 post-surgery, prior to start of treatments
  Intensity of mechanical hypernociception, difference (Δ) of the withdrawal threshold: 41.55 ± 1.50 grams
[5]; [12]
  Rota-rod motor performance (Latency sec): 59 ± 0.5^b sec
[5]; [13]
  Rota-rod motor performance (Latency sec): 59 ± 0.5 s
[5]; day 11, without medications
  Rota-rod motor performance (Latency sec): 60 s
[6]; JM-20 2.5 mg/kg p.o., 1 h after first administration
  % MPE, mechanical allodynia: 24.97±8.5%
[6]; JM-20 5 mg/kg p.o., 1 h after first administration
  % MPE, mechanical allodynia: 50.21±7.6%
[6]; JM-20 10 mg/kg p.o., 1 h after first administration
  % MPE, mechanical allodynia: 48.68±7.6%
[6]; JM-20 20 mg/kg p.o., 1 h after first administration
  % MPE, mechanical allodynia: 64.25±9.7%
[6]; Rattus norvegicus, po, 168 h, JM-20 p.o., single dose, doses given in mg/kg
  ED50: 8.44 ± 1.9 mg/kg
[7]; JM-20 2.5 mg/kg p.o., 60 minutes after first dose, 7 days post-CCI
  % MPE, intensity of mechanical hypernociception: 32.26±4.2%
[7]; JM-20 2.5 mg/kg p.o., 14 days post-CCI after repeated doses
  % MPE, intensity of mechanical hypernociception: 40.86±7.1%
[7]; JM-20 5 mg/kg p.o., 60 minutes after first dose, 7 days post-CCI
  % MPE, intensity of mechanical hypernociception: 48.02±6.3%
[7]; JM-20 5 mg/kg p.o., 14 days post-CCI after repeated doses
  % MPE, intensity of mechanical hypernociception: 38.13±9.4%
[7]; JM-20 10 mg/kg p.o., 60 minutes after first dose, 7 days post-CCI
  % MPE, intensity of mechanical hypernociception: 39.20±7.9%
[7]; JM-20 10 mg/kg p.o., 14 days post-CCI after repeated doses
  % MPE, intensity of mechanical hypernociception: 46.18±5.7%
[7]; JM-20 20 mg/kg p.o., 60 minutes after first dose, 7 days post-CCI
  % MPE, intensity of mechanical hypernociception: 58.15±7.3%
[7]; JM-20 20 mg/kg p.o., 14 days post-CCI after repeated doses
  % MPE, intensity of mechanical hypernociception: 55.28±8.3%
[7]; JM-20 p.o. for 8 days, mechanical hypernociception at days 14, 15-16 post-CCI
  Neuroadaptations (tolerance/hyperalgesia) after repeated administration: neuroadaptations (tolerance/hyperalgesia) were not observed
[7]; po, JM-20 p.o., 7 days post-CCI
  ED50: 12.4 ± 6.4 mg/kg
[8]; JM-20-SS group, non-injured rats
  Response to mechanical and thermal stimuli versus control group (CMC-SS): did not show differences
[8]; healthy rats, chronic morphine + JM-20 co-treatment, at 11 days
  Thermal hyperalgesia (PWL, hot plate test): prevented thermal hyperalgesia
[8]; healthy rats, morphine 10 mg/kg s.c. twice a day for 10 days, JM-20 p.o. co-treatment 1 h before
  Percentage response to 4 g VFF and 15 g VFF and withdrawal threshold (Δ): significantly reduced
[8]; tolerant/hyperalgesic rats, day 11, test dose of morphine 5 mg/kg i.p., both phases
  Nociceptive scores in the 5% formalin test: significantly improved nociceptive scores
[9]; JM-20 2.5-20 mg/kg p.o., after first administration or repeated doses at 14 days post-CCI
  Effect on withdrawal thresholds in the Hargreaves test: did not increase withdrawal thresholds significantly

## NCC1(CC(=O)O)CCCCC1 [gabapentin]
[3]
  Qualitative histopathological changes of the sciatic nerve (Wallerian degeneration, cellularity): decrease in these alterations

## CN1CC[C@]23c4c5ccc(O)c4O[C@H]2[C@@H](O)C=C[C@H]3[C@H]1C5 [morphine, reference compound]
[2]; [10]
  Corneal reflex, % of animals showing the reflex: 100%
  Pinna reflex, % of animals showing the reflex: 100%
  Placing/stepping reflex, % of animals showing the reflex: 100%
  Righting reflex, % of animals showing the reflex: 100%
[2]; [11]
  Corneal reflex, % of animals showing the reflex: 100%
  Pinna reflex, % of animals showing the reflex: 100%
  Placing/stepping reflex, % of animals showing the reflex: 100%
  Righting reflex, % of animals showing the reflex: 100%
[2]; day 11, without medications
  Corneal reflex, % of animals showing the reflex: 100%
  Pinna reflex, % of animals showing the reflex: 100%
  Placing/stepping reflex, % of animals showing the reflex: 100%
  Righting reflex, % of animals showing the reflex: 100%
[3]
  Qualitative histopathological changes of the sciatic nerve (Wallerian degeneration, cellularity): minimal increase in cellularity
[4]; CCI rats, morphine group (vehicle p.o.), day 7 post-surgery, prior to start of treatments
  Intensity of mechanical hypernociception, difference (Δ) of the withdrawal threshold: 41.22±1.58 grams
[4]; CCI rats, morphine group (vehicle p.o.), day 7 post-surgery, prior to start of treatments, listed as MOR
  Intensity of mechanical hypernociception, difference (Δ) of the withdrawal threshold: 41.22 ± 1.58 grams
[4]; Sham CCI rats, morphine group, day 7 post-surgery, prior to start of treatments
  Intensity of mechanical hypernociception, difference (Δ) of the withdrawal threshold: 2.06 ± 2.96≠ grams
[5]; [12]
  Rota-rod motor performance (Latency sec): 16 ± 1.9^a sec
[5]; [13]
  Rota-rod motor performance (Latency sec): 57 ± 1.8 s
[5]; day 11, without medications
  Rota-rod motor performance (Latency sec): 60 s
[6]; morphine 10 mg/kg s.c., first administration
  % MPE, mechanical allodynia: 100%
[7]; sc, morphine s.c., 7 days post-CCI
  ED50: 5.63 ± 0.8 mg/kg
[7]; morphine 3 mg/kg s.c., 14 days post-CCI after 8 repeated doses
  % MPE, intensity of mechanical hypernociception: 1.36±0.5%
[7]; morphine 3 mg/kg s.c., first administration, 7 days post-CCI
  % MPE, intensity of mechanical hypernociception: 17.67±2.8%
[7]; morphine 5 mg/kg s.c., 14 days post-CCI after 8 repeated doses
  % MPE, intensity of mechanical hypernociception: 6.10±1.0%
[7]; morphine 5 mg/kg s.c., first administration, 7 days post-CCI
  % MPE, intensity of mechanical hypernociception: 48.05±2.9%
[7]; morphine 10 mg/kg s.c., 14 days post-CCI after 8 repeated doses
  % MPE, intensity of mechanical hypernociception: 14.18±4.7%
[7]; morphine 10 mg/kg s.c., first administration, 7 days post-CCI
  % MPE, intensity of mechanical hypernociception: 72.22±4.6%
[9]; Rattus norvegicus, sc, 168 h, morphine s.c., single dose, 7 days post-CCI, doses given in mg/kg
  ED50: 3.17 ± 0.4 mg/kg
[9]; morphine 3 mg/kg s.c., 7 days post-CCI
  % MPE, thermal hypernociception: 30.0±13%
[9]; morphine 10 mg/kg s.c., 7 days post-CCI
  % MPE, thermal hypernociception: 95.69±3.4%
